Earlier results as cited in patent US12285521B2, “Pharmaceutical formulation” (Klaria Pharma Holding AB, priority 2016, dated 2025).

What was measured:
[1] = test system: migraine; details: subcutaneous administration, 6 mg sumatriptan
[2] = test system: migraine; details: to be achieved within 60 minutes after dosing

time of maximum plasma concentration (after intranasal administration): 1 to 1.5 h
mean intranasal bioavailability (intranasal, after a 20 mg dose): 15.8%
mean maximum concentration (intranasal, after a 20 mg dose): 12.9 ng/mL
Compound: CNS(=O)(=O)Cc1ccc2[nH]cc(CCN(C)C)c2c1 [sumatriptan]
people with pain reduced from moderate or severe to none within two hours [1]: ~60%
plasma level for the most reliable migraine-relieving effect [2]: over 9.44 ng/mL
